Drawing on patent US20100227872A1, “PYRAZINE DERIVATIVES” (priority 2007, published 2010), this text covers IC50 for 17 compounds.

Holding throughout (type): cell-based
One test has as its target T1, Human Nav1.5 (Homo sapiens, UniProt Q14524).
T1 construct: expressed in transfected cells; host or cells: HEK293
Put plainly: Nav1.5 Assay (VIPR, as Nav1.8 assay). The settings on record: HEK293 cells expressing Human Nav1.5; average of replicates. The procedure:
The Nav1.5 assay is performed in HEK293 cells expressing Human Nav1.5 in the same way as the Nav1.8 assay described above.

For test [1], the system named is tetrodotoxin-sensitive voltage-gated sodium channels including NaV1.2, NaV1.3 and NaV1.7. Put plainly: TTX-S Assay in SHSY-5Y cell line (VIPR, veratridine opener). Particulars: read-out: TTX-S IC50, veratridine 50 μM as opener, average of replicates.
The next test has as its target T2, Human Nav1.8 (Homo sapiens, UniProt Q9Y5Y9).
T2 construct: expressed in transfected cells; host or cells: HEK293 (selected with Geneticine)
As to the kind of experiment: VIPR Assay for Nav1.8 Compounds (FRET membrane potential, deltamethrin opener). The settings on record: HEK293 cells expressing Human Nav1.8; deltamethrin as opener; average of replicates.

Broadly, the IC50 is the concentration that inhibits the measured activity by half.

T2 sequence (Q9Y5Y9 whole entry): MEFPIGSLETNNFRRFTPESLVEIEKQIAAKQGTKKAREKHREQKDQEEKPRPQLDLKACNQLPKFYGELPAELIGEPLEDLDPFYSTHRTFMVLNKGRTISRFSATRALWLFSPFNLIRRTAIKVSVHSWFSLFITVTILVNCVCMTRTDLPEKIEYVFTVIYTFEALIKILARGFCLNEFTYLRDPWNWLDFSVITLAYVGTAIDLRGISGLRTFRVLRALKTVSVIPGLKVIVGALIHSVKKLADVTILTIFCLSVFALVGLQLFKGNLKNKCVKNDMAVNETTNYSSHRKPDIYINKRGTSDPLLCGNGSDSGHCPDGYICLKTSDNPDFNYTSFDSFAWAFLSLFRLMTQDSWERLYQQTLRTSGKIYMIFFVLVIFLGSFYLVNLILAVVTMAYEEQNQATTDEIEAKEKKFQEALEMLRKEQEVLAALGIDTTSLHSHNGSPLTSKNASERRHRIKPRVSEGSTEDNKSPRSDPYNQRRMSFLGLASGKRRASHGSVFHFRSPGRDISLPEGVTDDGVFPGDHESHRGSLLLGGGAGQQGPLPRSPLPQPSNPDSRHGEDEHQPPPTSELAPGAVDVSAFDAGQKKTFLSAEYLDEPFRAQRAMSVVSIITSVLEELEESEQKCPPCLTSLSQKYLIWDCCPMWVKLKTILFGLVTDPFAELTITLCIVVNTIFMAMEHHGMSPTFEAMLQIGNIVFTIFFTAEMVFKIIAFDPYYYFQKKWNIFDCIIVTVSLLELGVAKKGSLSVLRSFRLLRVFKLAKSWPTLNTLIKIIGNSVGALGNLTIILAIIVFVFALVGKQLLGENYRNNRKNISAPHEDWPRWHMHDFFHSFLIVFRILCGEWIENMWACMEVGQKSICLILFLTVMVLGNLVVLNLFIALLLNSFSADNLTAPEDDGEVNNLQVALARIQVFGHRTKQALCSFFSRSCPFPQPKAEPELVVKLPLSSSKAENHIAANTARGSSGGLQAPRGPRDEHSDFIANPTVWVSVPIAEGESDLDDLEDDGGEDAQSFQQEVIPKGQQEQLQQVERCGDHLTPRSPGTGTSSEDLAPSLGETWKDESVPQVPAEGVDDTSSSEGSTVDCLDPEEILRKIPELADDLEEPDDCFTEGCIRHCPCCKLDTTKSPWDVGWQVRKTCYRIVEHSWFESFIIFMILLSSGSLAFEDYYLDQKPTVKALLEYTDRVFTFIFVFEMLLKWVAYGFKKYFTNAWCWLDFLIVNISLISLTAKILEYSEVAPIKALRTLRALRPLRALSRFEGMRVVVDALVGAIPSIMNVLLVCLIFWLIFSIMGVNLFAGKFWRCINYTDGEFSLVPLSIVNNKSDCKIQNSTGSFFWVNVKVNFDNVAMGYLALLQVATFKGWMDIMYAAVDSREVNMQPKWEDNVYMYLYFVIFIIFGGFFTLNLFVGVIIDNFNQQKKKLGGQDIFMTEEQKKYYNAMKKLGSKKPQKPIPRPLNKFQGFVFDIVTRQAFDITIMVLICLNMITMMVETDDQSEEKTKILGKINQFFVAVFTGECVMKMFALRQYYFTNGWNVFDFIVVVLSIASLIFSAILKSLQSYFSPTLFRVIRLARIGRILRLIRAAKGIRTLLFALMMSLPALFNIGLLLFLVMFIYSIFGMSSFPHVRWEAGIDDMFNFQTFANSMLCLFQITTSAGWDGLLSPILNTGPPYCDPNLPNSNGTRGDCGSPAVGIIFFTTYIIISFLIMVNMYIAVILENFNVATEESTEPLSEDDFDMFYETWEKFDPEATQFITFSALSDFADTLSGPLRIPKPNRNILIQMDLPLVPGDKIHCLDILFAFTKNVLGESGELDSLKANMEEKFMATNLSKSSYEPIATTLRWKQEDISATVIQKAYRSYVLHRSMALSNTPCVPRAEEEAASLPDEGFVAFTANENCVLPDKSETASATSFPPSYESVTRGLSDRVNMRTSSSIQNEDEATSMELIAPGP
T1 sequence (Q14524 whole entry): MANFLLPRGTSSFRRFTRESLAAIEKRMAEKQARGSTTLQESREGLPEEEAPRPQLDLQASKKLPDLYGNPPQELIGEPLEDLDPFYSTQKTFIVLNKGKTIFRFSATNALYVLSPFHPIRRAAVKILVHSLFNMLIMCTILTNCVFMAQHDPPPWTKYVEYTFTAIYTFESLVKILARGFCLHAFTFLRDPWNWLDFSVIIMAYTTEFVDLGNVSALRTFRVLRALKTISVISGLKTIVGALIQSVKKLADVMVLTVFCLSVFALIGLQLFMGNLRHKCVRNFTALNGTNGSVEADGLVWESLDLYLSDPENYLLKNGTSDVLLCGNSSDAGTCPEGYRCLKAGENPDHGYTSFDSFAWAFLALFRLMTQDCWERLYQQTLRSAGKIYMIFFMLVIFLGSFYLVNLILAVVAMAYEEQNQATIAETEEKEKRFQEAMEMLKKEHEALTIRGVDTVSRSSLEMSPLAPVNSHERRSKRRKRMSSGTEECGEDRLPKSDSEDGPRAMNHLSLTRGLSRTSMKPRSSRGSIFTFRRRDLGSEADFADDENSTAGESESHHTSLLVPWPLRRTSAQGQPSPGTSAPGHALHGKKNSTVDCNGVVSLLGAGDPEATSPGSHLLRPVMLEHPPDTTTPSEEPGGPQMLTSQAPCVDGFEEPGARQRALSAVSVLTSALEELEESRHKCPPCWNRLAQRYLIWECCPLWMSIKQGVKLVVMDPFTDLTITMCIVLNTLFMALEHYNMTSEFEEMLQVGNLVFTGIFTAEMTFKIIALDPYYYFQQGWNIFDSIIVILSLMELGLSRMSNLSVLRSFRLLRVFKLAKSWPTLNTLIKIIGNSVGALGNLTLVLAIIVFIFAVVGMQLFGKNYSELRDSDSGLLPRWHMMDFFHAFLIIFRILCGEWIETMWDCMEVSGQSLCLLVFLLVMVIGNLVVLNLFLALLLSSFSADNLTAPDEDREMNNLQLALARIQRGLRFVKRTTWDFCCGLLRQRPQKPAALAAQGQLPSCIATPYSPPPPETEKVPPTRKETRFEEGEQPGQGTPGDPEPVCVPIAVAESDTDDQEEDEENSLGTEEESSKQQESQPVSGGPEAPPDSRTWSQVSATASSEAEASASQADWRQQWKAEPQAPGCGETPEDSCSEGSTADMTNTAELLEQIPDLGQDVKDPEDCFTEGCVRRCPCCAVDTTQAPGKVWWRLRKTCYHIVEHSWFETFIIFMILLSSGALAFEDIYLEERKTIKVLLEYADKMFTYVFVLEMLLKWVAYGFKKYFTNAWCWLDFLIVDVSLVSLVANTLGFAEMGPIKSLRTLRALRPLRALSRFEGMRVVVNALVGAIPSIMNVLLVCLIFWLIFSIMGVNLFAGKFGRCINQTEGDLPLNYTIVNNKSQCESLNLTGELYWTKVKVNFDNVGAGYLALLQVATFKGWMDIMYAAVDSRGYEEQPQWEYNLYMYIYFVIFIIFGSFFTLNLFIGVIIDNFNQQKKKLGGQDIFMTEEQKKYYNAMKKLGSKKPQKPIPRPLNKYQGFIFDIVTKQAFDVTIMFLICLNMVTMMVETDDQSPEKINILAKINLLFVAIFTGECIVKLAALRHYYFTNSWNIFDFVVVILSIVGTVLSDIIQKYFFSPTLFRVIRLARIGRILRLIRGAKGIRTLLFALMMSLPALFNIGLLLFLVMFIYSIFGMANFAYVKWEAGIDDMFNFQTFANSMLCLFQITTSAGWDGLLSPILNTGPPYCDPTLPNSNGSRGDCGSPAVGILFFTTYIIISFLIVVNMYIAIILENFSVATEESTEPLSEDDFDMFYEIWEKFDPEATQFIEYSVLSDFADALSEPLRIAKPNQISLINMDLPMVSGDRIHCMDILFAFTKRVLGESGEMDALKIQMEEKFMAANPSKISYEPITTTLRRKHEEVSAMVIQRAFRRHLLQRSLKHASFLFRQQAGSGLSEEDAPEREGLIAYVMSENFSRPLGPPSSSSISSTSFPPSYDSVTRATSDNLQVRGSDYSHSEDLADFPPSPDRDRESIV

In the case of `Cc1nocc1C(=O)Nc1cnc(-c2ccccc2OC(F)(F)F)c(N)n1` [Example 1, N-{6-Amino-5-[2-(trifluoromethoxy)phenyl]pyrazin-2-yl}-3-methylisoxazole-4-carboxamide], the IC50 against Human Nav1.5 is > 32 µM; in test [1], 30 µM; against Human Nav1.8 it was 3.6 µM.

As for `Cc1nocc1C(=O)Nc1cnc(-c2ccccc2C(F)(F)F)c(N)n1` [Example 2, N-{6-Amino-5-[2-(trifluoromethyl)phenyl]pyrazin-2-yl}-3-methylisoxazole-4-carboxamide], the values for the IC50 (in test [1]; at Human Nav1.8) were > 32 µM and 8.7 µM, respectively.

In the case of `Cc1nocc1C(=O)Nc1cnc(-c2cc(Cl)ccc2OC(F)(F)F)c(N)n1` [Example 3, N-{6-Amino-5-[5-chloro-2-(trifluoromethoxy)phenyl]pyrazin-2-yl}-3-methylisoxazole-4-carboxamide], the IC50 on Human Nav1.5 is > 32 µM; in test [1], 16 µM; against Human Nav1.8 it was 4.3 µM.

As for `CCn1nccc1C(=O)Nc1cnc(-c2ccccc2OC(F)(F)F)c(N)n1` [Example 4, N-{6-Amino-5-[2-(trifluoromethoxy)phenyl]pyrazin-2-yl}-1-ethyl-1H-pyrazole-5-carboxamide], the IC50 is > 32 µM against Human Nav1.5, > 32 µM in test [1] and 27 µM against Human Nav1.8.

Regarding `CC(C)n1nccc1C(=O)Nc1cnc(-c2ccccc2OC(F)(F)F)c(N)n1` [Example 5, N-{6-Amino-5-[2-(trifluoromethoxy)phenyl]pyrazin-2-v1}-1-isopropyl-1H-pyrazole-5-carboxamide], the IC50 at Human Nav1.5 was > 32 µM; in test [1], 29 µM; at Human Nav1.8, 19 µM.

Consider `COCc1nocc1C(=O)Nc1cnc(-c2ccccc2OC(F)(F)F)c(N)n1` [Example 6, N-{6-Amino-5-[2-(trifluoromethoxy)phenyl]pyrazin-2-yl}-3-(methoxymethyl)isoxazole-4-carboxamide], for which the IC50 against Human Nav1.5 was > 32 µM; in test [1], 19 µM; at Human Nav1.8, 20 µM.

For the compound `COCc1nocc1C(=O)Nc1cnc(-c2cc(Cl)ccc2OC(F)(F)F)c(N)n1` [Example 7], the IC50 stood at 21 µM against Human Nav1.5, 17 µM in test [1] and 4.6 µM against Human Nav1.8.

`COCc1nocc1C(=O)Nc1cnc(-c2cc(F)ccc2C(F)(F)F)c(N)n1` [Example 8, N-{6-Amino-5-[5-fluoro-2-(trifluoromethyl)phenyl]pyrazin-2-yl}-3-(methoxymethyl)isoxazole-4-carboxamide]: the IC50 on Human Nav1.5 was > 32 µM; on Human Nav1.8 it was 11 µM.

In the case of `COCc1oncc1C(=O)Nc1cnc(-c2ccccc2OC(F)(F)F)c(N)n1` [Example 9, N-{6-Amino-5-[2-(trifluoromethoxy)phenyl]pyrazin-2-yl}-5-(methoxymethyl)isoxazole-4-carboxamide], the IC50 against Human Nav1.5 is > 32 µM; in test [1], 30 µM; on Human Nav1.8 it was 20 µM.

Consider `Cc1nocc1C(=O)Nc1cnc(-c2cc(F)ccc2C(F)(F)F)c(N)n1` [Example 10, N-{6-amino-5-[5-fluoro-2-(trifluoromethyl)phenyl]pyrazin-2-yl}-3-methylisoxazole-4-carboxamide], for which the IC50 against Human Nav1.5 is > 32 µM; in test [1] it was > 32 µM; against Human Nav1.8 it was 4.7 µM.

Turning to `Cn1nccc1C(=O)Nc1cnc(-c2cc(Cl)ccc2OC(F)(F)F)c(N)n1` [Example 11, N-{6-Amino-5-[5-chloro-2-(trifluoromethoxy)phenyl]pyrazin-2-yl}-methyl-1H-pyrazole-5-carboxamide], the IC50 against Human Nav1.5 is > 32 µM; in test [1], > 32 µM; against Human Nav1.8, 12 µM.

`Nc1nc(NC(=O)c2conc2C(F)(F)F)cnc1-c1ccccc1OC(F)(F)F` [Example 12, N-{6-Amino-5-[2-(trifluoromethoxy)phenyl]pyrazin-2-yl}-3-(trifluoromethyl)isoxazole-4-carboxamide]: the IC50 is > 32 µM on Human Nav1.5, 21 µM in test [1] and 2.8 µM at Human Nav1.8.

Regarding `Cc1nocc1C(=O)Nc1cnc(-c2cc(F)ccc2OC(F)(F)F)c(N)n1` [Example 13, N-{6-Amino-5-[5-fluoro-2-(trifluoromethoxy)phenyl]pyrazin-2-yl}-3-methylisoxazole-4-carboxamide], the results for the IC50 (on Human Nav1.5; in test [1]; against Human Nav1.8) were > 32 µM, > 32 µM and 3.8 µM, respectively.

Take `Nc1nc(NC(=O)c2conc2C(F)(F)F)cnc1-c1cc(F)ccc1C(F)(F)F` [Example 14, N-{6-Amino-5-[5-fluoro-2-(trifluoromethyl)phenyl]ovrazin-2-yl}-3-trifluoromethylisoxazole-4-carboxamide]: the IC50 was > 32 µM against Human Nav1.5, 31 µM in test [1] and 2.5 µM against Human Nav1.8.

Consider `Cn1nccc1C(=O)Nc1cnc(-c2cc(F)ccc2OC(F)(F)F)c(N)n1` [Example 15], for which the IC50 against Human Nav1.5 was > 32 µM; in test [1], > 32 µM; on Human Nav1.8, 16 µM.

`CCOc1ccc(OC(F)(F)F)c(-c2ncc(NC(=O)c3ccnn3C)nc2N)c1` [Example 16, N-{6-Amino-5-[5-ethoxy-2-(trifluoromethoxy)phenyl]pyrazin-2-yl}-1-methyl-1H-pyrazole-5-carboxamide]: the figures for the IC50 against Human Nav1.5 and at Human Nav1.8 were > 32 µM and 19 µM, respectively.

For the compound `CCOc1ccc(OC(F)(F)F)c(-c2ncc(NC(=O)c3conc3C)nc2N)c1` [Example 17, N-(6-Amino-5-[5-ethoxy-2-{trifluoromethoxy)phenyl]pyrazin-2-yl}-3-methylisoxazole-4-carboxamide], the IC50 is > 32 µM on Human Nav1.5 and 1.9 µM against Human Nav1.8.
